The text below walks through data of patent US20250296971A1, “GASTRIC INHIBITORY PEPTIDE RECEPTOR LIGANDS” (priority 2021, published 2025).

*1 amine or outer side, *2 acyl side, *3 side chain or, on linkers, in order; H or OH if unused. Where a SMILES comes first, the peptide text is derived from it. Bridges are numbered along the chain shown (N, C = ends). [ ]: non-standard residue; d: D form. The star is where a group is joined. X5 = NC(=O)[C@H](CCCCNC(=O)CN1CCN(CC(=O)O)CCN(CC(=O)O)CCN(CC(=O)O)CC1)NC(=O)CCC(=O)NCCCOCCOCCOCCCN*; X3 = O=C(O)CN1CCN(CC(=O)O)CCN(CC(=O)NCCCOCCOCCOCCCN*)CCN(CC(=O)O)CC1; DOTA = O=C(O)CN1CCN(CC(=O)O)CCN(CC(=O)*)CCN(CC(=O)O)CC1; Propanoyl(3-(1-naphthyl)) = O=C(CCc1cccc2ccccc12)*; Trp(5-Cl) = N[C@@H](Cc1c[nH]c2ccc(Cl)cc12)C(=O)O; Trp(6-Cl) = N[C@@H](Cc1c[nH]c2cc(Cl)ccc12)C(=O)O; Trp(6-F) = N[C@@H](Cc1c[nH]c2cc(F)ccc12)C(=O)O; Propanoyl(3-(4-Cl-Ph)) = O=C(CCc1ccc(Cl)cc1)*; mXylylene = c1cc(C[*:1])cc(C[*:2])c1; Bta = N[C@@H](Cc1csc2ccccc12)C(=O)O; X6 = c1cc(CSCCN[*:2])nc(C[*:1])c1; X7 = c1cc(CSCCN[*:2])cc(C[*:1])c1; Hyp = O=C(O)[C@@H]1C[C@@H](O)CN1; X1 = O=C(CN1CCC(N[*:1])CC1)[*:2]; NMeE = CN[C@@H](CCC(=O)O)C(=O)O; Cha = N[C@@H](CC1CCCCC1)C(=O)O; Suc = O=C(CCC(=O)[*:2])[*:1]; Tle = CC(C)(C)[C@H](N)C(=O)O; X28 = O=C(CCc1ccc2ccccc2c1)*; Thp = NC1(C(=O)O)CCOCC1; Aib = CC(C)(N)C(=O)O

This experiment deals with T1, GIPR (CHO-K1-hGIPR cells) (Homo sapiens, UniProt P48546).
T1 construct: host or cells: CHO-K1
T1 sequence (P48546 22-466): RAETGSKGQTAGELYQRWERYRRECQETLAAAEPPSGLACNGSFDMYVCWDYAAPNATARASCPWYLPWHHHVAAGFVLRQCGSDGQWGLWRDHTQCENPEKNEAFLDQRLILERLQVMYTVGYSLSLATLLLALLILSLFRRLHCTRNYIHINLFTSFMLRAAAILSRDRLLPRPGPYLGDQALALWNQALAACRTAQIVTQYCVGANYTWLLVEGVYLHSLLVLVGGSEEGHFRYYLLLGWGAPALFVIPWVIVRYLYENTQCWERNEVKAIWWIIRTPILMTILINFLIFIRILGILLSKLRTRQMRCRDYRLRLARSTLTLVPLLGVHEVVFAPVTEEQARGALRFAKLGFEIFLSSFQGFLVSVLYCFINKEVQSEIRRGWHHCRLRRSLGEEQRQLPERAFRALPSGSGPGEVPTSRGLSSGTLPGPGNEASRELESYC
The experiment can be described thus: FACS binding assay. To be noted: competition with 20 nM GIP-057, 4° C. for 1 hour, read-out: pIC50 Category (converted). A digest of the protocol:
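Read-out: flow cytometric median fluorescence intensity, APC/Cy5 channel, plotted vs peptide conc.; 4PL fit → EC50/pEC50 or IC50/pIC50. Cells: CHO-K1-hGIPR, Accutase-detached, 500.000/mL in PBS + 1% FCS. Detection: APC-streptavidin 1 μg/mL, 30 min, on ice.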
Consider `CC[C@H](C)[C@@H]1NC(=O)[C@H](CC(C)C)NC(=O)C(C)(C)NC(=O)[C@@H](NC(=O)[C@H](CC(C)C)NC(=O)[C@H](CCC(=O)O)NC(=O)[C@@H]2CCCN2C(=O)[C@H](Cc2c[nH]c3ccccc23)NC(=O)[C@H](Cc2csc3ccccc23)NC(=O)[C@H](CC(=O)O)NC(C)=O)CSCc2cccc(c2)CSC[C@@H](C(=O)NCCCOCCOCCOCCCNC(=O)CCC(=O)N[C@@H](CCCCNC(=O)CN2CCN(CC(=O)O)CCN(CC(=O)O)CCN(CC(=O)O)CC2)C(N)=O)NC1=O` [GIP-273, Ac-Asp-Bta-Trp-Pro-Glu-Leu-[Cys(3MeBn)-Aib-Leu-Ile-Cys]-Ttds-Lys(DOTA)-NH2] (Ac-D[Bta]WPELC[Aib]LIC-X5; linker 7-11 via mXylylene), for which the IC50 is 100 to 794 nM.
The figure for `CC[C@H](C)[C@@H]1NC(=O)[C@H](CC(C)C)NC(=O)C(C)(C)NC(=O)[C@@H](NC(=O)[C@H](CC(C)C)NC(=O)[C@H](CCC(=O)O)N(C)C(=O)[C@@H]2CCCN2C(=O)[C@H](Cc2c[nH]c3ccccc23)NC(=O)[C@H](Cc2c[nH]c3ccccc23)NC(=O)[C@H](CC(=O)O)NC(C)=O)CSCc2cccc(c2)CSC[C@@H](C(=O)NCCCOCCOCCOCCCNC(=O)CCC(=O)N[C@@H](CCCCNC(=O)CN2CCN(CC(=O)O)CCN(CC(=O)O)CCN(CC(=O)O)CC2)C(N)=O)NC1=O` [GIP-274, Ac-Asp-Trp-Trp-Pro-Nme-Leu-[Cys(3MeBn)-Aib-Leu-Ile-Cys]-Ttds-Lys(DOTA)-NH2] (Ac-DWWP[NMeE]LC[Aib]LIC-X5; linker 7-11 via mXylylene) is 100 to 794 nM.
Turning to `CC[C@H](C)[C@@H]1NC(=O)[C@H](CC(C)C)NC(=O)C(C)(C)NC(=O)[C@@H](NC(=O)[C@@H](NC(=O)[C@H](CCC(=O)O)NC(=O)[C@@H]2CCCN2C(=O)[C@H](Cc2c[nH]c3ccccc23)NC(=O)[C@H](Cc2c[nH]c3ccccc23)NC(=O)[C@H](CC(=O)O)NC(C)=O)C(C)(C)C)CSCc2cccc(c2)CSC[C@@H](C(=O)NCCCOCCOCCOCCCNC(=O)CCC(=O)N[C@@H](CCCCNC(=O)CN2CCN(CC(=O)O)CCN(CC(=O)O)CCN(CC(=O)O)CC2)C(N)=O)NC1=O` [GIP-275, Ac-Asp-Trp-Trp-Pro-Glu-Tle-[Cys(3MeBn)-Aib-Leu-Ile-Cys]-Ttds-Lys(DOTA)-NH2] (Ac-DWWPE[Tle]C[Aib]LIC-X5; linker 7-11 via mXylylene), the IC50 was 100 to 794 nM.
As to `CC[C@H](C)[C@@H]1NC(=O)[C@H](C(C)(C)C)NC(=O)C(C)(C)NC(=O)[C@@H](NC(=O)[C@H](CC(C)C)NC(=O)[C@H](CCC(=O)O)NC(=O)[C@@H]2CCCN2C(=O)[C@H](Cc2c[nH]c3ccccc23)NC(=O)[C@H](Cc2c[nH]c3ccccc23)NC(=O)[C@H](CC(=O)O)NC(C)=O)CSCc2cccc(c2)CSC[C@@H](C(=O)NCCCOCCOCCOCCCNC(=O)CCC(=O)N[C@@H](CCCCNC(=O)CN2CCN(CC(=O)O)CCN(CC(=O)O)CCN(CC(=O)O)CC2)C(N)=O)NC1=O` [GIP-276, Ac-Asp-Trp-Trp-Pro-Glu-Leu-[Cys(3MeBn)-Aib-Tle-Ile-Cys]-Ttds-Lys(DOTA)-NH2] (Ac-DWWPELC[Aib][Tle]IC-X5; linker 7-11 via mXylylene), the IC50 is 100 to 794 nM.
The figure for `CC[C@H](C)[C@@H]1NC(=O)[C@H](CC(C)C)NC(=O)C(C)(C)NC(=O)[C@@H](NC(=O)[C@H](CC(C)C)NC(=O)[C@H](CCC(=O)O)NC(=O)[C@@H]2CCCN2C(=O)[C@H](Cc2c[nH]c3ccccc23)NC(=O)[C@H](Cc2c[nH]c3ccc(Cl)cc23)NC(=O)[C@H](CC(=O)O)NC(C)=O)CSCc2cccc(c2)CSC[C@@H](C(=O)NCCCOCCOCCOCCCNC(=O)CCC(=O)N[C@@H](CCCCNC(=O)CN2CCN(CC(=O)O)CCN(CC(=O)O)CCN(CC(=O)O)CC2)C(N)=O)NC1=O` [GIP-277, Ac-Asp-5Clw-Trp-Pro-Glu-Leu-[Cys(3MeBn)-Aib-Leu-Ile-Cys]-Ttds-Lys(DOTA)-NH2] (Ac-D[Trp(5-Cl)]WPELC[Aib]LIC-X5; linker 7-11 via mXylylene) is 100 to 794 nM; for `CC(=O)N[C@@H](CC(=O)O)C(=O)N[C@@H](Cc1c[nH]c2ccccc12)C(=O)N[C@@H](Cc1c[nH]c2ccccc12)C(=O)N1CCC[C@H]1C(=O)N[C@@H](CCC(=O)O)C(=O)N[C@@H](CC(C)C)C(=O)N[C@H]1CSCc2cccc(c2)CSC[C@@H](C(=O)NCCCOCCOCCOCCCNC(=O)CCC(=O)N[C@@H](CCCCNC(=O)CN2CCN(CC(=O)O)CCN(CC(=O)O)CCN(CC(=O)O)CC2)C(N)=O)NC(=O)[C@H](CC2CCCCC2)NC(=O)[C@H](CC(C)C)NC(=O)C(C)(C)NC1=O` [GIP-278, Ac-Asp-Trp-Trp-Pro-Glu-Leu-[Cys(3MeBn)-Aib-Leu-Cha-Cys]-Ttds-Lys(DOTA)-NH2] (Ac-DWWPELC[Aib]L[Cha]C-X5; linker 7-11 via mXylylene) it is 100 to 794 nM.
The figure for `CC[C@H](C)[C@@H]1NC(=O)[C@H](CC(C)C)NC(=O)C(C)(C)NC(=O)[C@@H](NC(=O)[C@@H](CC(C)C)NC(=O)[C@H](CCC(=O)O)NC(=O)[C@@H]2CCCN2C(=O)[C@H](Cc2c[nH]c3ccccc23)NC(=O)[C@H](Cc2c[nH]c3ccccc23)NC(=O)[C@H](CC(=O)O)NC(=O)CCc2ccc(Cl)cc2)CSCc2cccc(c2)CSC[C@@H](C(=O)NCCCOCCOCCOCCCNC(=O)CCC(=O)N[C@@H](CCCCNC(=O)CN2CCN(CC(=O)O)CCN(CC(=O)O)CCN(CC(=O)O)CC2)C(N)=O)NC1=O` [GIP-279, 4ClPhp-Asp-Trp-Trp-Pro-Glu-leu-[Cys(3MeBn)-Aib-Leu-Ile-Cys]-Ttds-Lys(DOTA)-NH2] ({Propanoyl(3-(4-Cl-Ph))}-DWWPE[dL]C[Aib]LIC-X5; linker 7-11 via mXylylene) is 100 to 794 nM; for `CC[C@H](C)[C@@H]1NC(=O)[C@H](CC(C)C)NC(=O)C(C)(C)NC(=O)[C@@H](NC(=O)[C@@H](CC(C)C)NC(=O)[C@H](CCC(=O)O)NC(=O)[C@@H]2CCCN2C(=O)[C@H](Cc2c[nH]c3ccccc23)NC(=O)[C@H](Cc2c[nH]c3ccccc23)NC(=O)[C@H](CC(=O)O)NC(=O)CCc2cccc3ccccc23)CSCc2cccc(c2)CSC[C@@H](C(=O)NCCCOCCOCCOCCCNC(=O)CCC(=O)N[C@@H](CCCCNC(=O)CN2CCN(CC(=O)O)CCN(CC(=O)O)CCN(CC(=O)O)CC2)C(N)=O)NC1=O` [GIP-280, Nph1p-Asp-Trp-Trp-Pro-Glu-leu-[Cys(3MeBn)-Aib-Leu-Ile-Cys]-Ttds-Lys(DOTA)-NH2] ({Propanoyl(3-(1-naphthyl))}-DWWPE[dL]C[Aib]LIC-X5; linker 7-11 via mXylylene) it is 100 to 794 nM; for `CC[C@H](C)[C@@H]1NC(=O)[C@H](CC(C)C)NC(=O)C(C)(C)NC(=O)[C@@H](NC(=O)[C@@H](CC(C)C)NC(=O)[C@H](CCC(=O)O)NC(=O)[C@@H]2CCCN2C(=O)[C@H](Cc2c[nH]c3ccccc23)NC(=O)[C@H](Cc2c[nH]c3ccccc23)NC(=O)[C@H](CC(=O)O)NC(=O)CCc2ccc3ccccc3c2)CSCc2cccc(c2)CSC[C@@H](C(=O)NCCCOCCOCCOCCCNC(=O)CCC(=O)N[C@@H](CCCCNC(=O)CN2CCN(CC(=O)O)CCN(CC(=O)O)CCN(CC(=O)O)CC2)C(N)=O)NC1=O` [GIP-281, Nph2p-Asp-Trp-Trp-Pro-Glu-leu-[Cys(3MeBn)-Aib-Leu-Ile-Cys]-Ttds-Lys(DOTA)-NH2] (X28-DWWPE[dL]C[Aib]LIC-X5; linker 7-11 via mXylylene) it is 100 to 794 nM.
The figure for `CC[C@H](C)[C@@H]1NC(=O)[C@H](CC(C)C)NC(=O)C(C)(C)NC(=O)[C@@H](NC(=O)[C@@H](CC(C)C)NC(=O)[C@H](CCC(=O)O)NC(=O)[C@@H]2CCCN2C(=O)[C@H](Cc2c[nH]c3cc(Cl)ccc23)NC(=O)[C@H](Cc2c[nH]c3ccccc23)NC(=O)[C@H](CC(=O)O)NC(C)=O)CSCc2cccc(c2)CSC[C@@H](C(=O)NCCCOCCOCCOCCCNC(=O)CCC(=O)N[C@@H](CCCCNC(=O)CN2CCN(CC(=O)O)CCN(CC(=O)O)CCN(CC(=O)O)CC2)C(N)=O)NC1=O` [GIP-282, Ac-Asp-Trp-6Clw-Pro-Glu-leu-[Cys(3MeBn)-Aib-Leu-Ile-Cys]-Ttds-Lys(DOTA)-NH2] (Ac-DW[Trp(6-Cl)]PE[dL]C[Aib]LIC-X5; linker 7-11 via mXylylene) is 100 to 794 nM; for `CC[C@H](C)[C@@H]1NC(=O)[C@H](CC(C)C)NC(=O)C(C)(C)NC(=O)[C@@H](NC(=O)[C@@H](CC(C)C)NC(=O)[C@H](CCC(=O)O)NC(=O)[C@@H]2CCCN2C(=O)[C@H](Cc2c[nH]c3ccccc23)NC(=O)[C@H](Cc2c[nH]c3cc(F)ccc23)NC(=O)[C@H](CC(=O)O)NC(=O)CCC(=O)NCCCOCCOCCOCCCNC(=O)CN2CCN(CC(=O)O)CCN(CC(=O)O)CCN(CC(=O)O)CC2)CSCc2cccc(c2)CSCCNC1=O` [GIP-283, DOTA-Ttds-Asp-6Fw-Trp-Pro-Glu-leu-[Cys(3MeBn)-Aib-Leu-Ile-AET]] ({X3-Suc}-D[Trp(6-F)]WPE[dL]C[Aib]LI; linker 7-C via X7) it is 100 to 794 nM; for `CC[C@H](C)[C@@H]1NC(=O)[C@H](CC(C)C)NC(=O)C2(CCOCC2)NC(=O)[C@@H](NC(=O)[C@@H](CC(C)C)NC(=O)[C@H](CCC(=O)O)NC(=O)[C@@H]2C[C@@H](O)CN2C(=O)[C@H](Cc2c[nH]c3ccc(Cl)cc23)NC(=O)CNC(=O)[C@H](CC(=O)O)NC(=O)CN2CCC(NC(=O)CN3CCN(CC(=O)O)CCN(CC(=O)O)CCN(CC(=O)O)CC3)CC2)CSCc2cccc(n2)CSCCNC1=O` [GIP-284, DOTA-APAc-Asp-Gly-5Clw-Hyp-Glu-leu-[Cys(2Lut)-Thp-Leu-Ile-AET]] ({DOTA}-[X1]DG[Trp(5-Cl)][Hyp]E[dL]C[Thp]LI; linker 8-C via X6) it is 100 to 794 nM.
